In brackets after ≈: the same amount, converted by molar mass.

The test system of test [1] is Mycobacterium tuberculosis. Kind of test: Antibacterial activity against Mycobacterium tuberculosis. The format is functional.
The nature of test [2]: Inhibition of Aeromonas proteolytica aminopeptidase. On the set-up: species or system Vibrio proteolyticus.
The subject of test [3] is Enterococcus faecalis. The test is described as follows: Antibacterial activity against Enterococcus faecalis. The format is functional.
Test [4] relates to Salmonella typhimurium. The test is described as follows: Antibacterial activity against Salmonella typhimurium. Particulars: Salmonella enterica. In kind it is functional, Salmonella enterica subsp. enterica serovar Typhimurium.
Test [5] relates to Bacillus subtilis. The test is described as follows: Antibacterial activity against Bacillus subtilis. In kind it is functional.
Test [6] has as its system Salmonella sp. The test is described as follows: Antibacterial activity against Salmonella sp. In kind it is functional.
In test [7] the test system is Aspergillus niger. Kind of test: Antifungal activity against Aspergillus niger. The format is functional.
The subject of test [8] is Enterococcus. Kind of test: Antibiofilm activity against vancomycin-resistant Enterococcus. In kind it is functional.
Test [9] concerns Staphylococcus aureus. The test is described as follows: Antibiofilm activity against methicillin-resistant Staphylococcus aureus. The format is functional.
Test [10] concerns Staphylococcus epidermidis. Kind of test: Antibiofilm activity against methicillin-resistant Staphylococcus epidermidis. The format is functional.
In test [11] the target is Botulinum neurotoxin type F (Clostridium botulinum, UniProt P30996). The test is described as follows: Inhibition of Botulinum neurotoxins/F.
Chain of Botulinum neurotoxin type F (P30996 1-436 limits assumed): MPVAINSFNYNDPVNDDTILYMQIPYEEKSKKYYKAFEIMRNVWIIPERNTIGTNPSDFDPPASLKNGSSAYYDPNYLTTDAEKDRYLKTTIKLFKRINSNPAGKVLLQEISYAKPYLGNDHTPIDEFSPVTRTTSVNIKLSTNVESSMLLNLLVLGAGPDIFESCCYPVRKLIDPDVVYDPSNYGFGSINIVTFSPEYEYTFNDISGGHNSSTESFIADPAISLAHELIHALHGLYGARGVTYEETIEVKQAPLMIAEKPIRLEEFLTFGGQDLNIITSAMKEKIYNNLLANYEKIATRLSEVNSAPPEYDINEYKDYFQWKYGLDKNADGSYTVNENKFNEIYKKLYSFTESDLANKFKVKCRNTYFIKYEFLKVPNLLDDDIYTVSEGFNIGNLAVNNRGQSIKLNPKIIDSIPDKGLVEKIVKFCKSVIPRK
Test [12] has as its system Chlamydia trachomatis. Kind of test: Bactericidal activity against Chlamydia trachomatis. The format is functional.
The test system of test [13] is Candida albicans. Kind of test: Antifungal activity against Candida albicans. The format is functional.
The test system of test [14] is Listeria monocytogenes. Kind of test: Antibacterial activity against Listeria monocytogenes. In kind it is functional.
Test [15] has as its system Shewanella putrefaciens. The test is described as follows: Antibacterial activity against Shewanella putrefaciens ATCC 8071. In kind it is functional.
Test [16] concerns Staphylococcus aureus. The test is described as follows: Antibacterial activity against Staphylococcus aureus ATCC 29213. The format is functional.
Test [17] deals with Salmonella typhimurium. Kind of test: Antibacterial activity against Salmonella typhimurium ATCC 13311. The format is functional, Salmonella enterica subsp. enterica serovar Typhimurium. Particulars: Salmonella enterica.
In test [18] the test system is Arthrodermataceae. Kind of test: […] activity against Arthrodermataceae. In kind it is functional.
For test [19], the system named is Candida. The test is described as follows: Antifungal activity against Candida. In kind it is functional.
Test [20] concerns Shigella dysenteriae. Kind of test: Antibacterial activity against Shigella dysenteriae. The format is functional.
Test [21] relates to Citrobacter freundii. Kind of test: Antibacterial activity against Citrobacter freundii. In kind it is functional.
Test [22] is described as follows: Inhibition of Mycobacterium tuberculosis MetAP1a.
The test system of test [23] is Morganella morganii. Kind of test: Antibacterial activity against Morganella morganii. The format is functional.
In test [24] the test system is Salmonella enteritidis. The test is described as follows: Antibacterial activity against Salmonella enteritidis. The format is functional, Salmonella enterica subsp. enterica serovar Enteritidis. Particulars: Salmonella enterica.
The subject of test [25] is Stutzerimonas stutzeri. The test is described as follows: Antibacterial activity against Pseudomonas stutzeri ATCC 17587. The format is functional.
The target in test [26] is Methionine aminopeptidase 2 (Homo sapiens, UniProt P50579). Kind of test: Inhibition of human MetAP2.
Chain of Methionine aminopeptidase 2 (P50579 whole entry): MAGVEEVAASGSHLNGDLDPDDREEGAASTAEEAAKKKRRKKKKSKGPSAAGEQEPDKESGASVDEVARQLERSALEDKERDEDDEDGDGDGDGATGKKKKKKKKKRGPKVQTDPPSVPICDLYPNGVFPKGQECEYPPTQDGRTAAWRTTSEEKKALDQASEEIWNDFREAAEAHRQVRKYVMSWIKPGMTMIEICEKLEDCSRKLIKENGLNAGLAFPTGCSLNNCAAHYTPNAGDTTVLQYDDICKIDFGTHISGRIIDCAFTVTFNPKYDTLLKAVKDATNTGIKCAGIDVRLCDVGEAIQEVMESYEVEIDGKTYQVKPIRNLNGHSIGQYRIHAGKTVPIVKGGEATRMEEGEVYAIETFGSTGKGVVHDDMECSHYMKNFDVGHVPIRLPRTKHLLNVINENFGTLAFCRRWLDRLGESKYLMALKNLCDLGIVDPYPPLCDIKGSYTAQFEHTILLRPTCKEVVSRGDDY
Test [27] relates to Bacillus subtilis. Kind of test: Antibacterial activity against Bacillus subtilis ATCC 6633. The format is functional.
Test [28] relates to Achromobacter xylosoxidans. The test is described as follows: Antibacterial activity against Achromobacter xylosoxidans ATCC 2706. In kind it is functional.
The subject of test [29] is Aeromonas hydrophila. Kind of test: Antibacterial activity against Aeromonas hydrophila. The format is functional.
Test [30] deals with Salmonella enterica. Kind of test: Antibacterial activity against Salmonella choleraesuis ATCC 10708. In kind it is functional.
Test [31] relates to Enterococcus faecalis. The test is described as follows: Antibacterial activity against Enterococcus faecalis ATCC 33186. The format is functional.
Test [32] in a line: Inhibition of Mycobacterium tuberculosis MetAP1c.
In test [33] the target is Methionine aminopeptidase 1 (Homo sapiens, UniProt P53582). Kind of test: Inhibition of human MetAP1.
The test system of test [34] is Serratia marcescens. Kind of test: Antibacterial activity against Serratia marcescens ATCC 8100. The format is functional.
Test [35] concerns Escherichia coli. Kind of test: Antibacterial activity against Escherichia coli ATCC 25922. In kind it is functional.
The test system of test [36] is Corynebacterium diphtheriae. Kind of test: Antibacterial activity against Corynebacterium diphtheriae NCTC 10356. The format is functional.
Test [37] concerns Micrococcus luteus. Kind of test: Antibacterial activity against Micrococcus luteus ATCC 10240. In kind it is functional.
In test [38] the test system is Staphylococcus epidermidis. Kind of test: Antibacterial activity against Staphylococcus epidermidis ATCC 12228. The format is functional.
In test [39] the test system is Enterococcus faecalis. The test is described as follows: Antibacterial activity against Enterococcus faecalis ATCC 29212. The format is functional.
Test [40] concerns Staphylococcus aureus. The test is described as follows: Antibacterial activity against Staphylococcus aureus ATCC 25923. The format is functional.
The subject of test [41] is Plesiomonas shigelloides. Kind of test: Antibacterial activity against Plesiomonas shigelloides. The format is functional.
Test [42] has as its system Klebsiella pneumoniae. Kind of test: Antibacterial activity against Klebsiella pneumoniae ATCC 700603. The format is functional.
Test [43] concerns Bacillus cereus. Kind of test: Antibacterial activity against Bacillus cereus. In kind it is functional.
Test [44] can be described thus: Inhibition of Mycobacterium tuberculosis Zmp1.
In test [45] the test system is Trichophyton. The test is described as follows: Antifungal activity against Trichophyton. In kind it is functional.
Test [46] relates to Microsporum. The test is described as follows: Antifungal activity against Microsporum. In kind it is functional.
Test [47] has as its system Chlamydia. The test is described as follows: Antibacterial activity against Chlamydia. In kind it is functional.

In test [1], `Cc1ccc2[nH]c(-c3ccccc3)c(C(NNC(=O)c3ccncc3)c3ccc4cccnc4c3O)c2c1` (stereo not given) returned an MIC of 100 µM (≈ 50 µg/mL).
Same read-out and setting: next, `Nc1ccc2cccc(O)c2n1`: 4.6 µM (≈ 0.737 µg/mL).
`O=[N+]([O-])c1ccc(O)c2ncccc12` [NITROXOLINE] had an IC50 in test [2] of 29 µM.
With `O=C(CSc1nnc(COc2cccc3cccnc23)n1-c1ccccc1)Nc1nc2cc([N+](=O)[O-])ccc2s1`, the MIC is 27.4 µM (≈ 15.6 µg/mL) in test [3] and 13.7 µM (≈ 7.8 µg/mL) in test [4].
`CC1CC(C)CN(c2nc(Nc3ccc(C#N)c(C(F)(F)F)c3)nc(Oc3cccc4cccnc34)n2)C1` (stereo not given) had an MIC in test [1] of 6 µM (≈ 3.12 µg/mL).
`NS(=O)(=O)c1cc(Cl)c2cccnc2c1O` yielded a Ki in test [2] greater than 100 µM.
Turning to `Cc1nc2[nH]nc(/N=N/c3ccc(O)c4ncccc34)c2c(C)c1Br`, the values for the minimal inhibitory concentration (MIC) in [5] and in [6] were 19.7 µM (≈ 7.81 µg/mL) and 4.91 µM (≈ 1.95 µg/mL), respectively.
With `Cc1ccc2ccc(C(=O)NCc3ccccc3)c(O)c2n1`, the MIC in test [1] is greater than 500 µM.
With `Brc1cccc(COc2cccc3cccnc23)c1`, the MIC in test [7] was found to be 9.94 µM (≈ 3.12 µg/mL). This counts as single-digit micromolar.
In turn, `OC(COc1ccccc1)COc1cccc2cccnc12` (stereo not given) displayed an MIC in test [1] of 42.3 µM (≈ 12.5 µg/mL).
For the compound `Oc1cccc2ccc(/C=C/c3ccccc3Cl)nc12`, the MIC in [1] is 5.8 µM (≈ 1.63 µg/mL).
As to `Oc1c(Br)cc(Br)c2ccc(CNc3ccc(F)cc3)nc12`, the MBEC in test [8] was 1 µM; in [9], 93.8 µM; in [10], 5.9 µM.
In [11], `Cc1ccnc(NC(c2ccccc2)c2ccc3cccnc3c2O)c1` (stereo not given) returned an IC50 of 14.9 µM.
In turn, `CNS(=O)(=O)c1cc(Cl)c2cccnc2c1O` registered a Ki in [2] greater than 100 µM.
Take `O=C(O)c1cn(C2CC2)c2cc(N3CCN(C(=O)c4ccc5cccc(O)c5n4)CC3)c(F)cc2c1=O`: in test [12], the MBC came to 5 µM (≈ 2.51 µg/mL).
As for `O=C(NCCO[C@H]1O[C@H](CO)[C@@H](O)[C@H](O)[C@@H]1O)c1ccc(O)c2ncccc12`, the MIC in test [13] was 5000 µM (≈ 1970 µg/mL).
With `O=C(Nc1ccc(C(F)(F)F)cc1)c1ccc2cccc(O)c2n1`, in [1], 24 µM (≈ 7.97 µg/mL) was the least that counted as inhibitory (MIC).
Take `O=C(O)c1ccc(O)c2ncccc12`: it took 1250 µM (≈ 236 µg/mL) to inhibit growth in test [13] (MIC).
On to `Oc1c(I)cc(Cl)c2cccnc12` [CLIOQUINOL], for which the MIC was 32.7 µM (≈ 10 µg/mL) in test [1]; 26.2 µM (≈ 8 µg/mL) in test [14]; greater than 26.2 µM in test [15]; 26.2 µM (≈ 8 µg/mL) in test [16]; greater than 26.2 µM in test [17]; 0.409 µM (≈ 0.125 µg/mL) in test [18]. The MIC in test [19] was 0.206 µM (≈ 0.0629 µg/mL); in test [20], greater than 26.2 µM; in test [21], greater than 26.2 µM; in test [23] it was greater than 26.2 µM; in test [24] it was greater than 26.2 µM; in [25], greater than 26.2 µM. Besides, the MIC in test [27] was 26.2 µM (≈ 8 µg/mL); in [28], greater than 26.2 µM; in test [29], greater than 26.2 µM; in [30] it was greater than 26.2 µM; in [31], 26.2 µM (≈ 8 µg/mL); in test [34], greater than 26.2 µM. Further, the MIC in [35] was greater than 26.2 µM; in test [36], 26.2 µM (≈ 8 µg/mL); in test [37], 26.2 µM (≈ 8 µg/mL); in [38], 26.2 µM (≈ 8 µg/mL); in [39], 26.2 µM (≈ 8 µg/mL); in test [40], 26.2 µM (≈ 8 µg/mL). In addition, the MIC in test [41] was greater than 26.2 µM; in [42], greater than 26.2 µM; in test [43], 26.2 µM (≈ 8 µg/mL). The IC50 in test [22] amounted to 9.25 µM; in [26] it was 80.4 µM; in test [32], 11.2 µM; in test [33], 84.7 µM. The compound further showed a Ki in [2] greater than 100 µM.
In test [1], `Oc1c(Cl)cc(Cl)c2ccc(/C=C/c3ccc(/C=C/c4ccc5c(Cl)cc(Cl)c(O)c5n4)cc3)nc12` showed an MIC greater than 72.2 µM.
Compound `O=C(O)c1ccc(NC(c2ccccc2)c2ccc3cccnc3c2O)cc1` (stereo not given) returned an IC50 in test [11] of 30.5 µM.
Regarding `CONC(=O)c1ccc2cccc(O)c2n1`, in test [44], the midpoint of inhibition, the IC50, lay at 0.115 µM. In other words, the sub-micromolar range.
For the compound `Oc1ccc(C(F)(F)F)c2cccnc12`, the Ki in [2] is 0.37 µM.
Still for that read-out and setting: the figure for `Oc1cccc2cccnc12` [OXYQUINOLINE] is 0.58 µM.
`O=C(NCCO[C@@H]1O[C@H](CO)[C@@H](O)[C@H](O)[C@H]1O)c1ccc2cccnc2c1O` displayed a minimum inhibitory concentration (MIC) in [13] of 10000 µM (≈ 3940 µg/mL).
`O=C(CSc1nnc(COc2cccc3cccnc23)n1-c1ccccc1)Nc1nc2cc(F)ccc2s1` yielded an MIC in [3] of 28.8 µM (≈ 15.6 µg/mL). That is a double-digit micromolar value.
Take `O=C(Nc1ccccc1Br)c1ccc2cccc(O)c2n1`: 23 µM (≈ 7.89 µg/mL) was the least that counted as inhibitory in test [1] (MIC).
In [1], `O=C(NNC(c1ccc2cccnc2c1O)c1c(-c2ccccc2)[nH]c2ccccc12)c1ccncc1` (stereo not given) returned an MIC of 103 µM (≈ 50 µg/mL). This MIC is about 4.5-fold higher than that of the compound before.
`Oc1cccc2ccc(/C=C/c3cccc(F)c3)nc12` gave an MIC in [1] of 13 µM (≈ 3.45 µg/mL).
Take `COc1cc(OC)nc(Nc2ccc3cccnc3c2O)n1`: the MIC in test [45] and in test [46] was 3.35 µM (≈ 0.999 µg/mL) each time.
For `O=C(NCCc1ccccc1)c1ccc2cccc(O)c2n1`, the IC50 in test [44] was greater than 10 µM.
In turn, `O=C(NCCO[C@H]1O[C@H](CO)[C@@H](O)[C@H](O)[C@@H]1O)c1ccc2cccnc2c1O` displayed an MIC in test [13] of 10000 µM (≈ 3940 µg/mL).
Compound `O=[N+]([O-])c1cc(CN2CCN(c3ccccc3)CC2)c(O)c2ncccc12` displayed an MBC in test [47] of 25 µM (≈ 9.11 µg/mL).
For `O=C(NCCCc1ccccc1)c1ccc2cccc(O)c2n1`, in test [44], the IC50 was greater than 10 µM.

Source of the values: ChEMBL document CHEMBL5226349, “Novel Antimicrobial 8-Hydroxyquinoline-Based Agents: Current Development, Structure-Activity Relationships, and Perspectives” (J Med Chem, 2021).
